Key:
[1] = system: C57BL/6 mice with diet-induced obesity; experiment: Diet-induced obesity (60% high fat diet) mouse study; format: in vivo; settings: HFD mice
Description: Following a 5 hour fast, a blood sample was obtained from the tail tip for the measurement of baseline glucose using a hand-held glucometer (Accu-Chek Aviva Plus, Roche). A bolus of glucose (1 g/kg) was then administered via i.p. injection. Blood samples were obtained at 5, 15, 30, 60 and 90 minutes following the glucose bolus for measurement of blood glucose. For detection of insulin signaling, mice were fasted for 5 hours on the last day of the study. Gastrocnemius skeletal muscle and liver tissues were harvested 10 minutes after an acute insulin administration (1.5 U/kg, i.p.) and immediately snap frozen. The tissue samples were homogenized in RIPA buffer containing 1% NP-40, 5 mM Na4P2O7, 1 mM EDTA, 20 mM NaF, 2 mM Na3VO4, 1× Complete protease inhibitor (Roche) and 1 mM phenylmethylsulfonyl fluoride. Western blot analysis for levels of phospho-Akt (S473) and total Akt was then performed.
(§1) All animal studies were performed in accordance with the National Institute of Health guidelines for humane treatment of animals and approved by the IACUC of the Sanford Burnham Prebys Medical Discovery Institute at Lake Nona. Six week old male C57BL/6J mice were obtained from Jackson Laboratory (stock number 000664) and acclimated for 1 week prior to study. Mice were maintained on standard chow or a 60% high fat diet (Research Diets, USA) for 8 weeks. SBI-993 was dissolved in a vehicle containing 2% DMSO, 2% Tween-80, and 96% water (pH9.0). Seven weeks after HFD feeding, mice were subcutaneously injected with SBI-993 (50 mg/kg mouse body weight) once daily for 7 days. Each group contains 6-10 mice and three independent experiments were conducted.
(§2) To determine if the effects conferred by SBI-477 observed in myocytes in culture are relevant in vivo, studies were conducted in C57BL/6 mice with diet-induced obesity. […] Mice were fed a 60% high fat diet (HFD) for 8 weeks resulting in significant weight gain (FIG. 6I). During the final week of HFD feeding, SBI-993 or vehicle control was administered as a once daily dose (50 mg/kg s.c.) for 7 days.

[2] = system: human skeletal myotubes; experiment: Triglyceride accumulation in oleate-loaded human skeletal myotubes; format: cell-based
Description: Human skeletal myotubes were differentiated for 8 days. On day 7, 100 μM of oleic acid complexed to fatty acid-free BSA was added to the cells with the indicated concentration of test compound for 24 hours. Following incubation with oleate and compound, cells were formaldehyde fixed and stained with AdipoRed™ (Lonza). Triglyceride accumulation was measured using signal intensity at excitation 540/emission 590 nm (Bio-Tek Instruments, Inc.). Dose response curves were generated in Prism 6 (GraphPad Software). EC50 values were calculated using non-linear regression analysis. For biochemical measurement of triglyceride, human skeletal myotubes were incubated with oleate-BSA and test compound as described above. After 24 hour incubation, cells were collected with a lysis buffer containing 0.1% IGEPAL CA-630 (Sigma-Aldrich) in PBS. The harvested cells were sonicated for 5 seconds and then centrifuged at 10,000×g for 10 minutes at 4° C. The supernatant was removed and stored on ice. TAG levels were quantified using Infinity™ Triglycerides Liquid Stable Reagent (Thermo Scientific), following the manufacturer's instructions for colorimetric assay.
Student's t-test, Mann Whitney test, one-way ANOVA with Bonferroni post hoc test, or two-way ANOVA with Tukey post hoc test was performed to determine statistical significance as indicated. […]

[3] = system: ARRDC4; experiment: ARRDC4 expression by quantitative RT-PCR in human myotubes; format: cell-based; settings: 24 hours
Description: FIGS. 4A-C show downregulation of TXNIP and ARRDC4 expression by SBI-477. (FIG. 4A) TXNIP and ARRDC4 mRNA levels as determined by quantitative RT-PCR in human myotubes treated with SBI-477 (10 μM) or DGAT1 inhibitor (DGATi, […]) for 24 hours in the absence or presence of 100 μM oleate (n=4). Expression is shown relative to vehicle/BSA treatment. (FIG. 4B) TXNIP gene expression following exposure to a dose range of SBI-477 for 24 hours (n=4). (FIG. 4C) Left, Effect of SBI-477 on TXNIP protein levels as determined by western blot analysis by SBI-477. Right, Quantitation of the TXNIP western blot data is shown (n=5). *p<0.05 vs. Vehicle/BSA control, †p<0.05 vs. Vehicle/oleate by one-way ANOVA with Bonferroni post hoc test. The data are shown as mean±SD.
Total RNA was isolated using RNeasy Mini Kit (Qiagen) according to the manufacturer's instructions. cDNA was synthesized using the Affinity Script cDNA Synthesis Kit (Stratagene) with 0.5 μg of total RNA. PCR reactions were performed in triplicate […] Roche LightCycler® 480 Instrument II) with specific primers for each gene.

[4] = system: primary murine skeletal myocytes; experiment: TAG accumulation in primary murine skeletal myocytes; format: cell-based; settings: Mus musculus; primary murine skeletal myocytes; read-out: Activity Score (IC50), triacylglyceride (TAG) accumulation
[5] = Plasma concentration in high fat diet mice; format: in vivo; settings: male, C57BL/6J, mouse, sc, 4 hours following the final dose, 50 mg/kg s.c. once daily for 7 days
Description: as §1, §2

[6] = muscle and liver, 50 mg/kg s.c. 7 days

Food intake ([1]; data not shown): not due to reduced food intake | IC50 [4]: < 1000 nM | concentration at 4 h [5]: 4.97 ± 0.97 µM
SMILES: COc1ccc(-c2csc(NC(=O)c3ccc(NCC(=O)N4CCOCC4)cc3)n2)cc1 [Cpd. 66, N-(4-(4-methoxyphenyl)thiazol-2-yl)-4-((2-morpholino-2-oxoethyl)amino)benzamide]
Glucose tolerance (1 g/kg glucose, i.p.) ([1]; 50 mg/kg s.c. 7 days): improved glucose tolerance | Hepatic steatosis ([1]; 50 mg/kg s.c. 7 days): substantially ameliorated | TAG levels in skeletal muscle ([1]; 50 mg/kg s.c. 7 days): significantly reduced | Body weight compared to vehicle ([1]; 50 mg/kg s.c. once daily for 7 days): small but significant reduction | Occupation of ChREBP and MondoA on Txnip and Pklr gene promoters (ChIP) ([1]; liver, 1 week administration): reduced in liver | Insulin signaling (phosphorylated Akt S473) after acute insulin challenge ([1]; muscle and liver): improved insulin signaling | Expression of TAG synthesis and lipogenic genes [1, 6]: reduced the expression | Txnip and Arrdc4 expression [1, 6]: reduced Txnip and Arrdc4 expression | Potency compared with SBI-477 (inhibition of triglyceride accumulation, FIG. 6H) [2]: improved potency | ARRDC4 expression [3]: to a similar degree as SBI-477
